Experimental data taken from US7820714B2, “Siglec inhibitors” (priority 2001, dated 2010).
Like-named read-outs stand apart in the source and are kept apart here.

How the values were obtained:
Siglec-1 (sialoadhesin) = Siglec-1 (sialoadhesin) (Mus musculus, UniProt Q62230); test: Hapten inhibition assay, Siglec-1 (sialoadhesin); format: binding; conditions: for Siglec-1 (sialoadhesin) rIP: quotient IC50 reference compound / IC50 compound; for Siglec-1 (sialoadhesin) percentage in parentheses below the IC50 bound: at the concentration of the IC50 bound, meaning not defined in the patent
Chain of Siglec-1 (sialoadhesin) (Q62230 20-136 limits assumed): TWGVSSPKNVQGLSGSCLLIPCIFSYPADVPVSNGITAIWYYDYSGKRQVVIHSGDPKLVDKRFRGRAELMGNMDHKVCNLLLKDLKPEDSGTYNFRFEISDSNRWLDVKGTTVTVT
Description: Preferably, the inhibition can be determined by a Hapten inhibition test. […] After overnight incubation at 4° C. the unbound complexes are removed by washing the cells and the bound radioactivity is determined. From the data obtained in this way, the concentrations are found which lead to 50% inhibition of the binding (IC50 values) (5, 6). Specially preferred during the Hapten inhibition test was 10 μl of the complex solution with an activity of 10^3 Bq ^125I mixed with the same volume of a solution of the substance to be investigated (concentrated three times) and incubated at 4° C. for one hour. Then followed the addition of 10 μl of a suspension of target cells, preferably 0.25 to 0.5% of human erythrocytes and incubation overnight at 4° C. The unbound radioactivity is removed by washing the cells five times with 200 μl of washing buffer, preferably phosphate-buffered saline with 0.1% (W/V) bovine serum albumin, and the cell-bound activity is determined with a γ-counter. […] The inhibition is determined in that the value without inhibitor is set to 0% and that with the sialidase-treated cells is set equal to 100%.
The IC50 value is the siglec inhibitor concentration which leads to 50% inhibition in the binding in the Hapten inhibition assay.

Siglec-4a (MAG) = biological target: T1, Siglec-4a (MAG) (UniProt P20917); test: Hapten inhibition assay, Siglec-4a (MAG); conditions: for Siglec-4a (MAG) rIP: quotient IC50 reference compound / IC50 compound; for IC50: read-out: Siglec-4a (MAG) IC50; for Siglec-4a (MAG) percentage in parentheses below the IC50 bound: at the concentration of the IC50 bound, meaning not defined in the patent
T1 sequence (P20917 1-627): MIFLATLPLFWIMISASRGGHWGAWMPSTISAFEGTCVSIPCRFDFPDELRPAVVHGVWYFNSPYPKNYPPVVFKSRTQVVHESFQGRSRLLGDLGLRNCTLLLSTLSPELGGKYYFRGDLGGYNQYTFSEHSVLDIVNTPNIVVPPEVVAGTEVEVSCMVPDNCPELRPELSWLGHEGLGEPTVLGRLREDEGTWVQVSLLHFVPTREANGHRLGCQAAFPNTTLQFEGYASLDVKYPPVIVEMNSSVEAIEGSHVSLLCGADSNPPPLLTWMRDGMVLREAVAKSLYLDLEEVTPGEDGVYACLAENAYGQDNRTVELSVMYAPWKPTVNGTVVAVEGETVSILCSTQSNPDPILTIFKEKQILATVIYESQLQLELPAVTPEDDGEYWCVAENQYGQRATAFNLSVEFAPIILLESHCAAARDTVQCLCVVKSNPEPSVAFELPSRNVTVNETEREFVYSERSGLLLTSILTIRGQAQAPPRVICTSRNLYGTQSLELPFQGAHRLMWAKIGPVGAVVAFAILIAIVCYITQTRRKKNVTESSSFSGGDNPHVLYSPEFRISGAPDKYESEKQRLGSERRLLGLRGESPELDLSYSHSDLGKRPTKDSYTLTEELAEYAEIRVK
Description: Preferably, the inhibition can be determined by a Hapten inhibition test. […] After overnight incubation at 4° C. the unbound complexes are removed by washing the cells and the bound radioactivity is determined. […] Then followed the addition of 10 μl of a suspension of target cells, preferably 0.25 to 0.5% of human erythrocytes and incubation overnight at 4° C. The unbound radioactivity is removed by washing the cells five times with 200 μl of washing buffer, preferably phosphate-buffered saline with 0.1% (W/V) bovine serum albumin, and the cell-bound activity is determined with a γ-counter. […] The inhibition is determined in that the value without inhibitor is set to 0% and that with the sialidase-treated cells is set equal to 100%.

Siglec-1 (sialoadhesin) rIP (Siglec-1 (sialoadhesin)) | IC50 (Siglec-1 (sialoadhesin); unit inferred) [mM] | Siglec-4a (MAG) rIP (Siglec-4a (MAG)) | IC50 (Siglec-4a (MAG); unit inferred) [mM] | Siglec-1 (sialoadhesin) percentage in parentheses below the IC50 bound (Siglec-1 (sialoadhesin)) | IC50 (Siglec-1 (sialoadhesin); bounds given in mM) [mM] | Siglec-4a (MAG) percentage in parentheses below the IC50 bound (Siglec-4a (MAG)) | IC50 (Siglec-4a (MAG); bounds given in mM) [mM] | SMILES
4.1 | 0.28 | 3.0 | 2 |  |  |  |  | CC(=O)N[C@H]1[C@H]([C@H](O)[C@H](O)CO)O[C@@](SCc2ccccc2)(C(=O)O)C[C@@H]1O [Benzylthio-α-Neu5Ac]
3.4 | 0.215 | 4.8 | 2.5 |  |  |  |  | CCC(=O)NC1C(O)CC(OCc2ccccc2)(C(=O)O)OC1C(O)C(O)CO (stereo not drawn) [Benzyl-α-5-N-propanoyl-neuraminic acid]
0.2 | 1.33 | 32 | 0.24 |  |  |  |  | CCOc1c(NC[C@@H](O)[C@@H](O)[C@@H]2O[C@@](OC)(C(=O)O)C[C@H](O)[C@H]2NC(C)=O)c(=O)c1=O [Methyl-α-9-N-(ethoxycyclobutendion)-amino-9-desoxy-Neu5Ac]
0.3 | 6 | 6.5 | 0.733 |  |  |  |  | CO[C@]1(C(=O)O)C[C@H](O)[C@@H](NC(C)=O)[C@H]([C@H](O)[C@H](O)CNC(C)=S)O1 [Methyl-α-9-N-thioacetyl-amino-9-desoxy-Neu5Ac]
0.3 | 7.48 | 3.3 | 3.4 |  |  |  |  | CO[C@]1(C(=O)O)C[C@H](O)[C@@H](NC(C)=O)[C@H]([C@H](O)[C@H](O)CNC(=O)CN)O1 [Methyl-α-9-N-aminoacetyl-9-desoxy-Neu5Ac]
<0.05 |  | >0.27 |  | (63%) | > 10 | (27%) | < 10 | O=C(NC1C(O)CC(OCc2ccccc2)(C(=O)O)OC1C(O)C(O)CO)c1ccccc1 (stereo not drawn) [Benzyl-α-5-N-benzoyl-neuraminic acid]
<<0.05 | 2 | 0.1 | 3.4 |  |  |  |  | CO[C@]1(C(=O)O)C[C@H](O)[C@@H](NC(C)=O)[C@H]([C@H](O)[C@H](O)CS(C)(=O)=O)O1 [Methyl-α-9-methylsulphonyl-9-desoxy-Neu5Ac]
<0.05 | 2 | 8.5 | 0.697 |  |  |  |  | CO[C@]1(C(=O)O)C[C@H](O)[C@@H](NC(C)=O)[C@H]([C@H](O)[C@H](O)C[S+](C)[O-])O1 (stereo partly drawn) [Methyl-α-9-methylsulphoxido-9-desoxy-Neu5Ac]
2.4 | 0.385 | 7.3 | 1.6 |  |  |  |  | CC(=O)N[C@H]1[C@H]([C@H](O)[C@H](O)CO)O[C@@](O[C@H]2[C@@H](O)[C@@H](CO)O[C@@H](O[C@H]3[C@H](O)[C@@H](O)C(O)O[C@@H]3CO)[C@@H]2O)(C(=O)O)C[C@@H]1O (stereo partly shown) [2,3-sialyllactose, reference compound]
<<0.05 |  | <<0.27 |  |  |  | (116%) | > 10 | COC1(C(=O)O)CC(O)C(NC(C)=O)C(C(O)C(O)CSC)O1 (stereo not drawn) [Methyl-α-9-methylthio-9-desoxy-Neu5Ac]
<<0.1 |  | 2.3 | 2.5 | (80%) | > 10 |  |  | CO[C@]1(C(=O)O)C[C@H](O)[C@@H](NC(C)=O)[C@H]([C@H](O)[C@H](O)CNC(=O)C(CNC(C)=O)NC(C)=O)O1 (stereo partly drawn) [Methyl-α-9-N-(2,3-diacetylaminopropanoyl)-amino-9-desoxy-Neu5Ac]
<0.2 | > 4 |  |  | (57%) |  |  |  | COC1(C(=O)O)CC(O)C(NC(C)=O)C(C(O)C(O)CNC(=O)C(N)=O)O1 (stereo not drawn) [Methyl-α-9-N-oxamido-amino-9-desoxy-Neu5Ac]
 |  | 7 | 0.367 |  |  |  |  | COC1(C(=O)O)CC(O)C(NC(C)=O)C(C(O)C(O)CNC(=O)Cc2ccccc2)O1 (stereo not drawn) [Methyl-α-9-N-(phenylacetyl)-amino-9-desoxy-Neu5Ac]
